Common to all, as to assay type: cell-based
One assay has as its target T1, GLUT1 (Homo sapiens, UniProt P11166).
T1 construct: host or cells: DLD-1 (DLD1) cells
T1 sequence (P11166 1-492): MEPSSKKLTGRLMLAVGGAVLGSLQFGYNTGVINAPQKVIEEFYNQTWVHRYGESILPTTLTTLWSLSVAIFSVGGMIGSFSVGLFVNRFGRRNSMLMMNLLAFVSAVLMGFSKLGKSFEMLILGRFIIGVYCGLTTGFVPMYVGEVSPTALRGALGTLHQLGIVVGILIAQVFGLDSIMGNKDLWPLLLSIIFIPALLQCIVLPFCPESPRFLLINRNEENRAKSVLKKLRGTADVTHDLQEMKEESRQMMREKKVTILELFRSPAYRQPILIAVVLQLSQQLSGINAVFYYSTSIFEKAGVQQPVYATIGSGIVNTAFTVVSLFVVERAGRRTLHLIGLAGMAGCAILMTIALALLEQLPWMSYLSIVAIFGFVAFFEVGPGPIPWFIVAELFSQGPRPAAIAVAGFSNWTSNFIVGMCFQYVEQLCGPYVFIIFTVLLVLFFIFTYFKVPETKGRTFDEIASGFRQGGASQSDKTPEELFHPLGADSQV
Nature of the assay: GLUT1 transporter activity assay (2-DG uptake) in DLD1 cells. Conditions: DLD1 cell line; read-out: GLUT1 inhibitory activity (IC50). From the text: (§1) GLUT 1, 2, 3 and 4 Transporter Activity Assays
(§2) Assays were based on the specificity assays reported by Kapoor et al., Proceedings of the National Academy of Sciences 2016, 113 (17) 4711-4716. For GLUT1, GLUT2, GLUT3 and GLUT4 specificity testing DLD1, CHO-hGLUT2, DLD-1-GLUT1−/− and CHO-hGLUT4 cell lines were used.
(§3) Assay protocols for 2-deoxy-Glucose (2-DG) Uptake Assay with DLD1 or DLD1-Glut1(−/−) cells or 7,000 CHOK1-SLC2A4 cells lines:
(§4) 14,000 DLD1 or DLD1-Glut1(−/−) cells or 7,000 CHOK1-SLC2A4 cells were seeded in black, clear bottom 384-well plates in glucose- and phenolred-free RPMI1640 medium supplemented with 1% FCS and 2 mM L-glutamine and allowed to attach overnight. Next day, cells were washed and incubated with compounds or DMSO and 1 mM 2-DG in glucose- and phenolred-free RPMI1640 medium for 30 min. Cells were then washed and lysed in 0.06 M HCl and 1% CHAPS for 15 min at 65° C. The amount of 2-DG in the lysate was determined by means of enzyme-coupled assay. For this 16 U/mL glucose-6-phosphate dehydrogenase, 0.2 U/mL diaphorase, 0.1 mM NADP^+ and 10 μM resazurin were added to the lysates. Resorufin fluorescence was determined as a measure of 2-DG uptake at ex/em 535/590 nm with a Victor Multilabel plate reader (Perkin Elmer). Blank values were subtracted from all readings and values were normalized to the DMSO control.

In a further assay the target is T2, GLUT2 (Homo sapiens, UniProt P11168).
T2 sequence (P11168 1-524): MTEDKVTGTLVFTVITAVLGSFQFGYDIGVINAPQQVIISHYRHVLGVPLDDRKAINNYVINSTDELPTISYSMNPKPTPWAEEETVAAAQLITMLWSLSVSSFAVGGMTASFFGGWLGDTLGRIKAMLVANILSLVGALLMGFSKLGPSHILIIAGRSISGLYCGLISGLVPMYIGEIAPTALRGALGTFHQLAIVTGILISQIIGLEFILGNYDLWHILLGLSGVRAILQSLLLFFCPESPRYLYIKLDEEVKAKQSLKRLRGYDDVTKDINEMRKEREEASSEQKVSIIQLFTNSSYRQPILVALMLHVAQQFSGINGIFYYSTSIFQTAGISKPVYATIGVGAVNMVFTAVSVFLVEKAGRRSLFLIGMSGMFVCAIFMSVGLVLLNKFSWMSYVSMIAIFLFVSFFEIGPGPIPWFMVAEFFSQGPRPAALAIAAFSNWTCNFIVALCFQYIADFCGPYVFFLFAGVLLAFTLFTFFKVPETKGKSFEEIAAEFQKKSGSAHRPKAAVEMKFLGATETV
Nature of the assay: GLUT2 transporter activity assay in CHO-hGLUT2 cells (indirect, intracellular ATP levels). The conditions noted are these: CHO-hGLUT2 cell line; read-out: GLUT2 inhibitory activity (IC50).
Source text: as §1, §2
Example 8-3: Indirect Measurement of GLUT2 (SLC2A2) Activity by Quantification of Intracellular ATP Levels
A combination of small-molecule inhibitors of mitochondrial electron transport chain and glucose catabolism synergistically suppress ATP production and impair cellular viability (Ulanovskaya et al., 2008, 2011; Liu, et al. 2001). We therefore used CHOK1 cells overexpressing SLC2A2 (CHOK1-SLC2A2) in combination with an oxidative phosphorylation inhibitor (Rotenon) to identify GLUT2 inhibitors. CHOK1-SLC2A2 cells were purchased from creative biogene (catNo: CSC-SC014484) and maintained in RPMI1640 supplemented with 10% FBS and 2 mM L-Glutamine. For the Glut2-ATP-Assay, 7,500 cells were seeded in black, clear bottom 384-well plates directly in glucose- and phenolred-free RPMI1640 medium supplemented with 1% FCS and 2 mM L-glutamine and cultured overnight to reduce intracellular ATP levels. Next day, cells were washed and incubated with […] and compounds or DMSO and 2.5 mM fructose in glucose- and phenolred-free RPMI1640 medium for 40 min. The CellTiter-Glo® Luminescence Viability Assay from Promega was used to measure ATP levels. Luminescence was measured with a Victor Multilabel plate reader (Perkin Elmer). Blank values were subtracted from all readings and values were normalized to the DMSO control.

The target of another assay is T3, GLUT3 (Homo sapiens, UniProt P11169).
T3 construct: host or cells: DLD-1-GLUT1(-/-) cells
T3 sequence (P11169 1-496): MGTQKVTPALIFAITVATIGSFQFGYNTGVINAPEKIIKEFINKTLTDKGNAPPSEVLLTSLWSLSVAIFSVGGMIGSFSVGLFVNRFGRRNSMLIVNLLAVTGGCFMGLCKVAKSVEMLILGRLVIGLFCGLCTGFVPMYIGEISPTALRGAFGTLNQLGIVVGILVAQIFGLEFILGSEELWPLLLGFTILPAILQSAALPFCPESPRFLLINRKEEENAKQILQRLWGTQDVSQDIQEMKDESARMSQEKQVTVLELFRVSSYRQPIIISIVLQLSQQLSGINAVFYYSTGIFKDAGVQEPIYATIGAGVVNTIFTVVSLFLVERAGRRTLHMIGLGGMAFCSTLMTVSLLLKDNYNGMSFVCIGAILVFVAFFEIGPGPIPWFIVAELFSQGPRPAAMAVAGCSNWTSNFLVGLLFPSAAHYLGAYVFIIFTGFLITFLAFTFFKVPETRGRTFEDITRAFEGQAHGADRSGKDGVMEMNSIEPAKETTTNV
Nature of the assay: GLUT3 transporter activity assay (2-DG uptake) in DLD-1-GLUT1-/- cells. Conditions: DLD-1-GLUT1-/- cell line; read-out: GLUT3 inhibitory activity (IC50).
Source text: as §1, §2, §3, §4

In another assay the target is T4, GLUT4 (Homo sapiens, UniProt P14672).
T4 sequence (P14672 1-509): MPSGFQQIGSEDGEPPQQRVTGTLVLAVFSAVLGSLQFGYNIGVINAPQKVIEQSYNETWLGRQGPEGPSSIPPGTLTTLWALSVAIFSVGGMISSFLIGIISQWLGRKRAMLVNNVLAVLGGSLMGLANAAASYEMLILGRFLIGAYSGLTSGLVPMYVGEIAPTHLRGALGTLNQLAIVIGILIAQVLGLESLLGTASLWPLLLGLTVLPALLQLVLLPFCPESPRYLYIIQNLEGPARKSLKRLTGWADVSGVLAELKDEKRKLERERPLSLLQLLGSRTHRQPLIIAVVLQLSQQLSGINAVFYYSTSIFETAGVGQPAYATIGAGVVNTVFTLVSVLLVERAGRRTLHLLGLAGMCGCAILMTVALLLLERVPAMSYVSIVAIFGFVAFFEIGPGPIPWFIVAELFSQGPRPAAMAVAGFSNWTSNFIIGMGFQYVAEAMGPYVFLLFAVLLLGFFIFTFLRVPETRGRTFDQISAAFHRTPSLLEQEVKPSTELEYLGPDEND
Nature of the assay: GLUT4 transporter activity assay (2-DG uptake) in CHO-hGLUT4 cells. Conditions: CHO-hGLUT4 cell line; read-out: GLUT4 inhibitory activity (IC50). How it is done: CHOK1-SLC2A4 cells were generated by transfection of CHOK1 cells with pCMV6-Entry-GLUT4 (Origene #SC125240) using Lipofectamin2000 according to the supplier's instructions. Briefly, 1.5E5 cells/well CHOK1 cells were seeded in 6-well cell culture plates. After overnight incubation, DNA-lipid complexes (2 μg plasmid DNA, DNA:lipid ratio 1:10) were prepared in OptiMEM and then added to the cells. After 5 days incubation, 800 μg G418 was added to the culture medium to generate a stable polyclone. For monoclone selection, single cells were re-plated in 96-well plates, expanded and selected by transgene overexpression and functional performance.
as §1, §2, §3, §4

Molecules are shown by their SMILES. Some results are limits rather than exact numbers.

Data on nine compounds can be found in patent US20210198269A1, “INHIBITORS OF GLUCOSE TRANSPORTERS (GLUTs)” (LEAD DISCOVERY CENTER GMBH, priority 2018, published 2021).

Broadly, the IC50 is the concentration that gives 50% inhibition.

With `CC12CC(NC(=O)N1c1cccc(C(=O)NCCOc3ccccc3)c1)c1cccc(OCc3ccccc3)c1O2` (centres unmarked) [Compound A21, 3-(10-(benzyloxy)-2-methyl-4-oxo-5,6-dihydro-2H-2,6-methanobenzo[g][1,3,5]oxadiazocin-3(4H)-yl)-N-(2-phenoxyethyl)benzamide], the IC50 at GLUT1 is 1000 to 4000 nM; on GLUT2 it was more than 25 µM; at GLUT3, 1000 to 4000 nM; on GLUT4, 10 to 25 µM.

Take `Cc1ccc(CCNC(=O)c2cccc(N3C(=O)NC4CC3(C)Oc3c(OCc5cccnc5)cccc34)c2)cc1` (centres unmarked) [Compound A10, 3-(2-Methyl-4-oxo-10-(pyridin-3-ylmethoxy)-5,6-dihydro-2H-2,6-methanobenzo[g][1,3,5]oxadiazocin-3(4H)-yl)-N-(4-methylphenethyl)benzamide]: the IC50 is not above 300 nM on GLUT1, 4 to 10 µM on GLUT2, 300 to 1000 nM on GLUT3 and 4 to 10 µM at GLUT4.

Take `Cc1ccc(CCNC(=O)c2cccc(N3C(=O)NC4CC3(C)Oc3c(OCc5ccccn5)cccc34)c2)cc1` (centres unmarked) [Compound A11, 3-(2-Methyl-4-oxo-10-(pyridin-2-ylmethoxy)-5,6-dihydro-2H-2,6-methanobenzo[g][1,3,5]oxadiazocin-3(4H)-yl)-N-(4-methylphenethyl)benzamide]: the half-maximal inhibitory concentration (IC50) on GLUT1 was not above 300 nM; on GLUT2 it was 4 to 10 µM; on GLUT3, not above 300 nM; at GLUT4, 1 to 4 µM.

As for `CC12CC(NC(=O)N1c1cccc(C(=O)NCCc3ccccc3)c1)c1cccc(OCc3ccccc3)c1O2` (centres unmarked) [Compound A36, 3-(10-(benzyloxy)-2-methyl-4-oxo-5,6-dihydro-2H-2,6-methanobenzo[g][1,3,5]oxadiazocin-3(4H)-yl)-N-(phenethyl)benzamide], the IC50 on GLUT1 is 300 to 1000 nM; at GLUT2 it was more than 25 µM; at GLUT3, 300 to 1000 nM; on GLUT4, 4 to 10 µM.

Take `Cc1ccc(CCN(C)C(=O)c2cccc(N3C(=O)NC4CC3(C)Oc3c(OCc5ccccc5)cccc34)c2)cc1` (centres unmarked) [Compound A23, 3-(10-(benzyloxy)-2-methyl-4-oxo-5,6-dihydro-2H-2,6-methanobenzo[g][1,3,5]oxadiazocin-3(4H)-yl)-N-methyl-N-(4-methylphenethyl)benzamide]: the half-maximal inhibitory concentration (IC50) on GLUT1 was 300 to 1000 nM; on GLUT2, more than 25 µM; at GLUT3, 300 to 1000 nM; at GLUT4, 4 to 10 µM.

As for `Cc1ccc(CCNC(=O)c2cccc(N3C(=O)NC4CC3(C)Oc3c(OCc5c(C)noc5C)cccc34)c2)cc1` (centres unmarked) [Compound A15, 3-(10-((3,5-Dimethylisoxazol-4-yl)methoxy)-2-methyl-4-oxo-5,6-dihydro-2H-2,6-methanobenzo[g][1,3,5]oxadiazocin-3(4H)-yl)-N-(4-methylphenethyl)benzamide], the IC50 on GLUT1 fell in the range of 300 to 1000 nM; on GLUT2 it was 10 to 25 µM; on GLUT3, 300 to 1000 nM; at GLUT4, 4 to 10 µM.

Take `Cc1ccc(OCCNC(=O)c2cccc(N3C(=O)NC4CC3(C)Oc3c(OCc5ccccc5)cccc34)c2)cc1` (centres unmarked) [Compound A35, 3-(10-(benzyloxy)-2-methyl-4-oxo-5,6-dihydro-2H-2,6-methanobenzo[g][1,3,5]oxadiazocin-3(4H)-yl)-N-(2-(4-methylphenoxy)ethyl)benzamide]: the half-inhibitory concentration (IC50) on GLUT1 was 300 to 1000 nM; at GLUT2 it was more than 25 µM; on GLUT3, 300 to 1000 nM; on GLUT4 it was 10 to 25 µM.

For `Cc1ccc(CCNC(=O)c2cccc(N3C(=O)NC4CC3(C)Oc3c(OCc5ccccc5)cccc34)c2)cc1` (centres unmarked) [Compound A01, 3-(10-(Benzyloxy)-2-methyl-4-oxo-5,6-dihydro-2H-2,6-methanobenzo[g][1,3,5]oxadiazocin-3(4H)-yl)-N-(4-methylphenethyl)benzamide], the IC50 on GLUT1 was not above 300 nM; at GLUT2, 10 to 25 µM; on GLUT3, not above 300 nM; on GLUT4, 10 to 25 µM.

For the compound `Cc1ccc(CCNC(=O)c2cccc(N3C(=O)NC4CC3(C)Oc3c(OCc5nccn5C)cccc34)c2)cc1` (centres unmarked) [Compound A16, 3-(2-Methyl-10-((1-methyl-1H-imidazol-2-yl)methoxy)-4-oxo-5,6-dihydro-2H-2,6-methanobenzo[g][1,3,5]oxadiazocin-3(4H)-yl)-N-(4-methylphenethyl)benzamide], the figures for the IC50 at GLUT1, on GLUT2 and on GLUT4 were 1000 to 4000 nM, more than 25 µM and more than 25 µM, respectively.
